Experimental findings from patent US20240366639A1, “HETEROCYCLIC GLP-1 AGONISTS” (GASHERBRUM BIO, INC., priority 2021, published 2024) are described below.

The structures appear in SMILES notation. Read-outs that look alike come from different tables or passages of the source.

For the assay, the target named is T1, GLP-1 Receptor (GLP1R) (Homo sapiens, UniProt P43220).
T1 construct: host or cells: HEK293/GLP1R/CRE-LUC
The assay is described as follows: GLP-1R agonist cAMP stimulation assay (Method 3). Type of assay: cell-based. As to conditions: HEK293/GLP1R/CRE-LUC cells (HDB), Method 3, 30 min incubation. As to the method:
Method 3: Activation of GLP-1 receptor is known to stimulate cyclic AMP (cAMP) production in cells which indicates primary coupling to the Gαs subunit of the G protein heterotrimeric complex.
To optimize functional activity directed toward Gαs coupling, a HEK293/CRE-Luc cell line developed by HDB stably expressing the GLP-1 Receptor was used, 200× concentration of compound working solutions were prepared (Agilent Technologies Bravo) with 1/2 log serial dilution in 384-well Echo LDV plate (Labcyte, Cat #LP-0200). 50 nL/well 200× concentration of compound working solutions were moved to 384-well white low volume plate (Greiner, Cat #784075) using Labcyte ECHO550. 1×10^5 cells/mL HEK293/GLP1R/CRE-LUC(HD Biosciences) cell suspensions prepared with assay buffer [DPBS containing 0.5 mM IBMX (Sigma, Cat #15879) and 0.1% BSA (GENVIEW, Cat #FA016-100 g)], 10 μL cell suspensions were added to each well of previous generated assay plate which already contains 50 nL compound at 200× concentration using ThermoFisher Multidrop Combi (1000 cells/well). Seal the plate and incubate at 37° C. with 5% CO2 for 30 min.
After incubation the cAMP assay signal was generated using cAMP dynamic 2 Kit (Cisbio). 5 μL cAMP-d2 working solution was added to each well, followed with 5 μL Anti-cAMP antibody-cryptate working solution added to each well using ThermoFisher Multidrop Combi. Incubate at room temperature for 1 hour protected from light. Read the fluorescence at 665 nm and 615 nm with Reader PerkinElmer EnVision.

Setting [1] is: read-out: GLP1R cAMP Stimulation DR: EC50 (nM) [Species: Human, Assay Cell Line: HDB].
Where [2] appears, read: read-out: GLP1R cAMP Stimulation DR: pEC50 (M) [Species: Human, Assay Cell Line: HDB] (converted).

T1 sequence (P43220 24-463): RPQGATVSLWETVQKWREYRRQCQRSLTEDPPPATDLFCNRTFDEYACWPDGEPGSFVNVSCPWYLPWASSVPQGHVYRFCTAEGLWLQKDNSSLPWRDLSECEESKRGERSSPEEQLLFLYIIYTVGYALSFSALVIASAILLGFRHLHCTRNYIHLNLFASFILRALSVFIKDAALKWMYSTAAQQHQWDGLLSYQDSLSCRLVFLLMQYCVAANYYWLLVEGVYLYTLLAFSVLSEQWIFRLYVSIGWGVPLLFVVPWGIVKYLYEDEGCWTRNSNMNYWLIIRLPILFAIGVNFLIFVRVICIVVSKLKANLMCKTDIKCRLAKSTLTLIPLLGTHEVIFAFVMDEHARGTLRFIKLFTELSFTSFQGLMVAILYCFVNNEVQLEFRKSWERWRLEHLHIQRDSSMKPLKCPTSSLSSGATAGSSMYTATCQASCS

For `CCP(=O)(CC)c1ccc(-n2ccn(-c3c4c(nn3-c3cc(C)c(F)c(C)c3)CCN(C(=O)c3cc5cc([C@@H]6CCOC(C)(C)C6)ccc5n3[C@@]3(c5noc(=O)[nH]5)C[C@@H]3C)[C@H]4C)c2=O)cc1NC` [Compound 146a, 3-((1S,2S)-1-(2-((S)-3-(3-(4-(diethylphosphoryl)-3-(methylamino)phenyl)-2-oxo-2,3-dihydro-1H-imidazol-1-yl)-2-(4-fluoro-3,5-dimethylphenyl)-4-methyl-4,5,6,7-tetrahydro-2H-pyrazolo[4,3-c]pyridine-5-carbonyl)-5-((R)-2,2-dimethyltetrahydro-2H-pyran-4-yl)-1H-indol-1-yl)-2-methylcyclopropyl)-1,2,4-oxadiazol-5(4H)-one], the EC50 by setting is: under setting [1], under 0.1 nM; under setting [2], at most 0.1 nM.

For the compound `CCP(=O)(CC)c1ccc(-n2ccn(-c3c4c(nn3-c3cc(C)c(F)c(C)c3)CCN(C(=O)c3cc5cc(C6CCOCC6)ccc5n3[C@@]3(c5noc(=O)[nH]5)C[C@@H]3C)[C@H]4C)c2=O)cc1` [Compound 129a, 3-((1S,2S)-1-(2-((S)-3-(3-(4-(diethylphosphoryl)phenyl)-2-oxo-2,3-dihydro-1H-imidazol-1-yl)-2-(4-fluoro-3,5-dimethylphenyl)-4-methyl-4,5,6,7-tetrahydro-2H-pyrazolo[4,3-c]pyridine-5-carbonyl)-5-(tetrahydro-2H-pyran-4-yl)-1H-indol-1-yl)-2-methylcyclopropyl)-1,2,4-oxadiazol-5(4H)-one], the EC50 reads like this: under setting [1], under 0.1 nM; under setting [2], at most 0.1 nM.

For `Cc1cc(-n2nc3c(c2-n2ccn(-c4ccc(P5(=O)CCCC5)cc4)c2=O)[C@H](C)N(C(=O)c2cc4cc(C5CCOCC5)ccc4n2[C@@]2(c4noc(=O)[nH]4)C[C@@H]2C)CC3)cc(C)c1F` [Compound 127a, 3-((1S,2S)-1-(2-((S)-2-(4-fluoro-3,5-dimethylphenyl)-4-methyl-3-(3-(4-(1-oxidophospholan-1-yl)phenyl)-2-oxo-2,3-dihydro-1H-imidazol-1-yl)-4,5,6,7-tetrahydro-2H-pyrazolo[4,3-c]pyridine-5-carbonyl)-5-(tetrahydro-2H-pyran-4-yl)-1H-indol-1-yl)-2-methylcyclopropyl)-1,2,4-oxadiazol-5(4H)-one], the EC50 was under 0.1 nM under setting [1] and at most 0.1 nM under setting [2].

As for `CNc1cc(-n2ccn(-c3c4c(nn3-c3cc(C)c(F)c(C)c3)CCN(C(=O)c3cc5cc(C6CCOCC6)ccc5n3[C@@]3(c5noc(=O)[nH]5)C[C@@H]3C)[C@H]4C)c2=O)ccc1P(=O)(C1CC1)C1CC1` [Compound 132a, 3-((1S,2S)-1-(2-((S)-3-(3-(4-(dicyclopropylphosphoryl)-3-(methylamino)phenyl)-2-oxo-2,3-dihydro-1H-imidazol-1-yl)-2-(4-fluoro-3,5-dimethylphenyl)-4-methyl-4,5,6,7-tetrahydro-2H-pyrazolo[4,3-c]pyridine-5-carbonyl)-5-(tetrahydro-2H-pyran-4-yl)-1H-indol-1-yl)-2-methylcyclopropyl)-1,2,4-oxadiazol-5(4H)-one], the EC50 runs as follows: under setting [1], 0.1 to 0.2 nM; under setting [2], 0.1 to 1 nM.

Turning to `CCP(=O)(CC)c1cc(F)c(-n2ccn(-c3c4c(nn3-c3cc(C)c(F)c(C)c3)CCN(C(=O)c3cc5cc(C6CCOCC6)ccc5n3[C@@]3(c5noc(=O)[nH]5)C[C@@H]3C)[C@H]4C)c2=O)cc1NC` [Compound 144a, 3-((1S,2S)-1-(2-((S)-3-(3-(4-(diethylphosphoryl)-2-fluoro-5-(methylamino)phenyl)-2-oxo-2,3-dihydro-1H-imidazol-1-yl)-2-(4-fluoro-3,5-dimethylphenyl)-4-methyl-4,5,6,7-tetrahydro-2H-pyrazolo[4,3-c]pyridine-5-carbonyl)-5-(tetrahydro-2H-pyran-4-yl)-1H-indol-1-yl)-2-methylcyclopropyl)-1,2,4-oxadiazol-5(4H)-one], the EC50 is under 0.1 nM under setting [1] and at most 0.1 nM under setting [2].

Take `Cc1cc(-n2nc3c(c2-n2ccn(-c4cc(P(C)(C)=O)c5c(cnn5C)c4)c2=O)[C@H](C)N(C(=O)c2cc4cc(C5CCOCC5)ccc4n2[C@@]2(c4noc(=O)[nH]4)C[C@@H]2C)CC3)cc(C)c1F` [Compound 112a, 3-((1S,2S)-1-(2-((S)-3-(3-(7-(dimethylphosphoryl)-1-methyl-1H-indazol-5-yl)-2-oxo-2,3-dihydro-1H-imidazol-1-yl)-2-(4-fluoro-3,5-dimethylphenyl)-4-methyl-4,5,6,7-tetrahydro-2H-pyrazolo[4,3-c]pyridine-5-carbonyl)-5-(tetrahydro-2H-pyran-4-yl)-1H-indol-1-yl)-2-methylcyclopropyl)-1,2,4-oxadiazol-5(4H)-one]: the EC50 under setting [1] lay in the range of 0.5 to 5 nM and the EC50 under setting [2] was 0.1 to 1 nM.

Regarding `Cc1cc(-n2nc3c(c2-n2ccn(-c4ccc(P(C)(C)=O)cc4)c2=O)[C@H](C)N(C(=O)c2cc4cc(C5CCOCC5)ccc4n2[C@@]2(c4noc(=O)[nH]4)C[C@@H]2C)CC3)cc(C)c1F` [Compound 101a, 3-((1S,2S)-1-(2-((S)-3-(3-(4-(Dimethylphosphoryl)phenyl)-2-oxo-2,3-dihydro-1H-imidazol-1-yl)-2-(4-fluoro-3,5-dimethylphenyl)-4-methyl-4,5,6,7-tetrahydro-2H-pyrazolo[4,3-c]pyridine-5-carbonyl)-5-(tetrahydro-2H-pyran-4-yl)-1H-indol-1-yl)-2-methylcyclopropyl)-1,2,4-oxadiazol-5(4H)-one], the EC50 by setting is: under setting [1], 0.1 to 0.2 nM; under setting [2], 0.1 to 1 nM.

`CCP(=O)(CC)c1ccc(-n2ccn(-c3c4c(nn3-c3cc(C)c(F)c(C)c3)CCN(C(=O)c3cc5cc(C6CCOCC6)ccc5n3[C@@]3(c5noc(=O)[nH]5)C[C@@H]3C)[C@H]4C)c2=O)cc1NS(C)(=O)=O` [Compound 116a]: the EC50 runs as follows: under setting [1], 0.2 to 0.5 nM; under setting [2], 0.1 to 1 nM.

For the compound `Cc1cc(-n2nc3c(c2-n2ccn(Cc4cccc(P(C)(C)=O)c4)c2=O)[C@H](C)N(C(=O)c2cc4cc(C5CCOCC5)ccc4n2[C@@]2(c4noc(=O)[nH]4)C[C@@H]2C)CC3)cc(C)c1F` [Compound 147a, 3-((1S,2S)-1-(2-((S)-3-(3-(3-(dimethylphosphoryl)benzyl)-2-oxo-2,3-dihydro-1H-imidazol-1-yl)-2-(4-fluoro-3,5-dimethylphenyl)-4-methyl-4,5,6,7-tetrahydro-2H-pyrazolo[4,3-c]pyridine-5-carbonyl)-5-(tetrahydro-2H-pyran-4-yl)-1H-indol-1-yl)-2-methylcyclopropyl)-1,2,4-oxadiazol-5(4H)-one], the EC50 is 0.5 to 5 nM under setting [1] and 1 to 10 nM under setting [2].

On to `CCP(=O)(CC)c1ccc(-n2ccn(-c3c4c(nn3-c3cc(C)c(F)c(C)c3)CCN(C(=O)c3cc5cc(C6CCOCC6)ccc5n3[C@@]3(c5noc(=O)[nH]5)C[C@@H]3C)[C@H]4C)c2=O)cc1OC(F)F` [Compound 136a, 3-((1S,2S)-1-(2-((S)-3-(3-(4-(diethylphosphoryl)-3-(difluoromethoxy)phenyl)-2-oxo-2,3-dihydro-1H-imidazol-1-yl)-2-(4-fluoro-3,5-dimethylphenyl)-4-methyl-4,5,6,7-tetrahydro-2H-pyrazolo[4,3-c]pyridine-5-carbonyl)-5-(tetrahydro-2H-pyran-4-yl)-1H-indol-1-yl)-2-methylcyclopropyl)-1,2,4-oxadiazol-5(4H)-one], for which the EC50 reads like this: under setting [1], 0.2 to 0.5 nM; under setting [2], 0.1 to 1 nM.

On to `CCNc1cc(-n2ccn(-c3c4c(nn3-c3cc(C)c(F)c(C)c3)CCN(C(=O)c3cc5cc(C6CCOCC6)ccc5n3[C@@]3(c5noc(=O)[nH]5)C[C@@H]3C)[C@H]4C)c2=O)ccc1P(=O)(CC)CC` [Compound 120a, 3-((1S,2S)-1-(2-((S)-3-(3-(4-(diethylphosphoryl)-3-(ethylamino)phenyl)-2-oxo-2,3-dihydro-1H-imidazol-1-yl)-2-(4-fluoro-3,5-dimethylphenyl)-4-methyl-4,5,6,7-tetrahydro-2H-pyrazolo[4,3-c]pyridine-5-carbonyl)-5-(tetrahydro-2H-pyran-4-yl)-1H-indol-1-yl)-2-methylcyclopropyl)-1,2,4-oxadiazol-5(4H)-one], for which the EC50 runs as follows: under setting [1], under 0.1 nM; under setting [2], at most 0.1 nM.

Turning to `Cc1cc(-n2nc3c(c2-n2ccn(-c4ccc(P(C)(C)=O)c(F)c4)c2=O)[C@H](C)N(C(=O)c2cc4cc(C5CCOCC5)ccc4n2[C@@]2(c4noc(=O)[nH]4)C[C@@H]2C)CC3)cc(C)c1F` [Compound 108a, 3-((1S,2S)-1-(2-((S)-3-(3-(4-(dimethylphosphoryl)-3-fluorophenyl)-2-oxo-2,3-dihydro-1H-imidazol-1-yl)-2-(4-fluoro-3,5-dimethylphenyl)-4-methyl-4,5,6,7-tetrahydro-2H-pyrazolo[4,3-c]pyridine-5-carbonyl)-5-(tetrahydro-2H-pyran-4-yl)-1H-indol-1-yl)-2-methylcyclopropyl)-1,2,4-oxadiazol-5(4H)-one], the EC50 was 0.2 to 0.5 nM under setting [1] and 0.1 to 1 nM under setting [2].
